From patent publication US12692253B2, “Antimicrobial compounds and methods” (Curza Global, LLC, priority 2019, dated 2026)

What was measured:
[1] = system: E. coli S30 extract (bacterial protein synthesis); assay: E. coli S30 extract coupled transcription-translation luciferase assay (inhibition of bacterial protein synthesis); type: biochemical; settings: % inhibition @ 1 μM, read-out: S30 IC50 (μM/% inhib.)
How it was run: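 Coupled transcription-translation in E. coli S30 circular-DNA extract expressing luciferase from pBESTluc, with 8-point 2-fold compound dilutions; 1 hour at 37 °C, stopped at 4 °C. Luminescence read; % inhibition versus no-inhibitor wells, no-DNA wells as background.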

[2] = target: Rabbit Reticulocyte Lysate (eukaryotic protein synthesis); assay: Rabbit reticulocyte lysate luciferase assay (inhibition of eukaryotic protein synthesis); type: biochemical; settings: % inhibition @ 1 μM, read-out: Rabbit reticulocyte IC50 (μM/% inhib.)
How it was run: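 In vitro translation of luciferase control RNA in nuclease-treated rabbit reticulocyte lysate with amino acid mixture, compounds in 2-fold serial dilution, 90 minutes at 30° C. Luminescence read after luciferase reagent; % inhibition relative to water no-inhibitor controls, with no-RNA background wells.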

A. baumannn (Ab) = assay: Broth microdilution minimum inhibitory concentration (MIC), CLSI; type: cell-based; settings: A. baumannn; growth medium with sodium bicarbonate; read-out: Ab + bicarb MIC
How it was run: (§1)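 Bacteria grown at 35±2 °C to 0.5 McFarland turbidity were added at 5×10^4 CFU/well to triplicate two-fold compound series (8 dilutions). Media were cation-adjusted Mueller-Hinton broth alone or with sodium bicarbonate (6.25 or 25 mM final) or heat-inactivated human serum (0–50%), per modified CLSI method.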

E. coli (Ec) = assay: as above; type: cell-based; settings: Escherichia coli, growth medium with sodium bicarbonate, read-out: E. coli + bicarb MIC
How it was run: as §1

E. faecalis (Ef) = assay: as above; type: cell-based; settings: Enterococcus faecalis, growth medium with sodium bicarbonate, read-out: Ef + bicarb MIC
How it was run: as §1

P. aeruginosa (Pa) = assay: as above; type: cell-based; settings: Pseudomonas aeruginosa, growth medium with sodium bicarbonate, read-out: Pa MIC + bicarb
How it was run: as §1

S. aureus (Sa) = assay: as above; type: cell-based; settings: Staphylococcus aureus, growth medium with sodium bicarbonate, read-out: Sa + bicarb MIC
How it was run: as §1

Row | Structure (SMILES) | IC50 [1] | IC50 [2] | MIC (A. baumannn (Ab)) | MIC (E. coli (Ec)) | MIC (E. faecalis (Ef)) | MIC (P. aeruginosa (Pa)) | MIC (S. aureus (Sa))
1 | CC(C)(N)C(=O)N1CCN(C(=O)Nc2ccn(-c3ccc(C[C@H](N)NN4C[C@@H]5[C@@H](N)[C@@H]5C4)cc3)c(=O)n2)CC1 [Compound 178] | ≥ 1 µM | ≥ 1 µM | > 32 µg/mL | > 32 µg/mL | > 32 µg/mL | > 32 µg/mL | > 32 µg/mL
2 | CC(C)(N)C(=O)N1CCN(C(=O)Nc2ccn(-c3ccc(CCCN4C[C@@H]5[C@@H](N)[C@@H]5C4)cc3)c(=O)n2)CC1 [Compound 179] | ≥ 1 µM | ≥ 1 µM | > 32 µg/mL | 8 to 32 µg/mL | > 32 µg/mL | > 32 µg/mL | < 8 µg/mL
3 | CC(C)(N)C(=O)N1CCN(C(=O)Nc2ccn(-c3ccc(CCCN4CCC5(CC4)CC(N)C5)cc3)c(=O)n2)CC1 [Compound 180] | ≥ 1 µM | ≥ 1 µM | > 32 µg/mL | < 8 µg/mL | > 32 µg/mL | > 32 µg/mL | 8 to 32 µg/mL
4 | CC(COc1ccc(-n2ccc(NC(=O)N3CCN(C(=O)C(C)(C)N)CC3)nc2=O)cc1)N1CC2(CC(N)C2)C1 (centres unmarked) [Compound 181] | 0.5 to 1 µM | ≥ 1 µM | > 32 µg/mL | < 8 µg/mL | < 8 µg/mL | > 32 µg/mL | < 8 µg/mL
5 | CC(C)(N)C(=O)N1CCN(C(=O)Nc2ccn(-c3ccc(C[C@H](N)C(=O)N4C[C@@H]5[C@@H](CN)[C@@H]5C4)cc3)c(=O)n2)CC1 [Compound 182] | ≥ 1 µM | ≥ 1 µM | > 32 µg/mL | > 32 µg/mL | > 32 µg/mL | > 32 µg/mL | > 32 µg/mL
6 | CC(C)(N)C(=O)N1CCN(C(=O)Nc2ccn(-c3ccc(C[C@H](N)C(=O)N4CC5CC5(CN)C4)cc3)c(=O)n2)CC1 (some centres unmarked) [Compound 183] | ≥ 1 µM | ≥ 1 µM | > 32 µg/mL | > 32 µg/mL | > 32 µg/mL | > 32 µg/mL | > 32 µg/mL
7 | CC(C)(N)C(=O)N1CCN(C(=O)Nc2ccn(-c3ccc(CCCN4CC5CC5(CN)C4)cc3)c(=O)n2)CC1 (centres unmarked) [Compound 184] | ≥ 1 µM | ≥ 1 µM | > 32 µg/mL | < 8 µg/mL | 8 to 32 µg/mL | > 32 µg/mL | < 8 µg/mL
8 | CC(C)(N)C(=O)N1CCN(C(=O)Nc2ccn(-c3ccc(CCCN4C[C@@H]5[C@@H](CN)[C@@H]5C4)cc3)c(=O)n2)CC1 [Compound 185] | ≥ 1 µM | ≥ 1 µM | > 32 µg/mL | < 8 µg/mL | 8 to 32 µg/mL | > 32 µg/mL | < 8 µg/mL
9 | CC(CN1C[C@@H]2[C@@H](CN)[C@@H]2C1)Oc1ccc(-n2ccc(NC(=O)N3CCN(C(=O)C(C)(C)N)CC3)nc2=O)cc1 (some centres unmarked) [Compound 186] | < 0.5 µM | ≥ 1 µM | 8 to 32 µg/mL | < 8 µg/mL | < 8 µg/mL | > 32 µg/mL | < 8 µg/mL
10 | CC(C)(N)C(=O)N1CCN(C(=O)Nc2ccn(-c3ccc(OCCN4C[C@@H]5[C@@H](CN)[C@@H]5C4)cc3)c(=O)n2)CC1 [Compound 187] | < 0.5 µM | ≥ 1 µM | 8 to 32 µg/mL | < 8 µg/mL | < 8 µg/mL | 8 to 32 µg/mL | < 8 µg/mL
11 | CC(COc1ccc(-n2ccc(NC(=O)N3CCN(C(=O)C(C)(C)N)CC3)nc2=O)cc1)N1C[C@@H]2[C@@H](CN)[C@@H]2C1 (some centres unmarked) [Compound 188] | < 0.5 µM | ≥ 1 µM | 8 to 32 µg/mL | < 8 µg/mL | < 8 µg/mL | 8 to 32 µg/mL | < 8 µg/mL
